Results published in US8084459B2, “Substituted quinazolinones for treating neurological conditions” (Prana Biotechnology Ltd, priority 2004, dated 2011).
“And” between values parts separate entries of the source, which are not always exact repeats. Equal values may be shown once.

Assays:
[1] = biological target: T1, Aβ 1-42 (Homo sapiens, UniProt P05067); experiment: Assay 1 Fluorometric H2O2 assay (peroxide); format: biochemical; details: inhibition of H2O2 generation by Aβ with copper
T1 construct: The reaction solutions contained Aβ 1-42 at concentrations
Experimental: Assay 1. Fluorometric H2O2 Assay
A fluorometric assay was used to test the ability of a test compound to inhibit hydrogen peroxide generation by Aβ in the presence of copper based on dichlorofluoroscein diacetate (DCF; Molecular Probes, Eugene Oreg.). The DCF solution (5 mM) in 100% dimethyl sulphoxide (previously purged with argon for 1 hr at 20° C.) was deacetylated in the presence of 0.025M NaOH for 30 min and neutralised at pH 7.4 to a final concentration of 1 mM. Horseradish peroxidase (HRP) stock solution was prepared to 1 μM at pH 7.4. The reactions were carried out in PBS, pH 7.4 in a 96 well plate (total volume=250 μl/well). The reaction solutions contained Aβ 1-42 at concentrations in the range of 50 nM to 1 μM, copper-glycine chelate (Cu-Gly), was prepared by adding CuCl2 to glycine in the ratio of 1:6 and added to the Aβ in the proportion 2Cu-Gly:1Aβ), reducing agents including dopamine (5 μM) or ascorbic acid, deacetylated DCF 100 μM, and HRP, 0.1 μM. 1-10 μM EDTA or another chelator may also be present as a control for free copper, but was not required for the assay to function. The reaction mixture was incubated at 37 C for 60 min. Catalase (4000 units/ml) and H2O2 (1-2.5 μM) standards in PBS pH 7.4 may be included as positive controls. Fluorescence was recorded using a plate reader with excitation and emission filters at […] respectively. H2O2 concentration may be established by comparing fluorescence with the H2O2 standards. Inhibition of Aβ H2O2 production was assayed by including a given concentration of test compound(s) in the test wells.

[2] = biological target: T2, A-beta 1-42 aggregates formed by precipitation with zinc (Homo sapiens, UniProt P05067); experiment: Assay 17 synthetic amyloid plaque disaggregation assay (thioflavin T); format: biochemical; details: for Assay 17 percentage disaggregation at 5 uM: 5 uM (printed as 5/%); for EC50: Aβ1-42/Zn/ThT aggregates, 2 hours, 37 degrees
T2 construct: host or cells: chemically synthesised peptide
Experimental: Assay 17. Synthetic Amyloid Plaque Disaggregation Assay
This assay measures the ability of test compounds to dissolve aggregates of synthetic Alzheimer's A-beta 42 residue peptide formed by precipitation with zinc.
The synthetic plaque disaggregation assay is a thioflavin T fluorescence-based assay which measures the ability of a test compound to disaggregate synthetic aggregates generated by the incubation of Alzheimer's amyloid A-beta protein (Aβ) in the presence of zinc.
The 42 residue A-beta which is the form most prevalent in Alzheimer's amyloid plaques is precipitated by the addition of zinc salts to form a beta sheet conformational aggregate physicochemically congruent with the crystalline amyloid plaque cores. […] Solubilisation of the metal bound aggregates by a test compound will result in reduced fluorescence as the beta sheet conformation is lost. The activity of a compound in this assay is a combination of its metal chelating properties, solubility, hydrophobicity and structural elements which influence interaction with the amyloid mass.
The assay models the process by which a test compound is acting, either to compete for bound metals with Aβ or alternatively to displace metals by competitively binding at the metal binding site, resulting in Aβ precipitated by zinc, being solubilised, as an in vitro model of plaque disaggregation.
Aliquots of synthetic Aβ peptide are prepared for convenience. Aβ is dissolved in distilled H2O and peptide concentration is assessed by absorption at 214 nm against a validated standard curve. Abeta/Zn aggregates in the presence of solvent only (DMSO) and control vehicle (PBS) are included in each assay as negative controls. The test compounds were dissolved in DMSO to a concentration of 5 mM. Dilutions were made in DMSO as appropriate to 100 times the desired final concentration and added immediately to the A-beta aggregates.
A-beta 1-42 is incubated with ZnCl2 and Thioflavine T (ThT) in a molar ratio of (1:2:2) for 24 hours at 37 degrees on a rotating wheel in PBS pH 6.6. Following incubation, aggregates are incubated with test drug for a further 2 hours at 37 degrees with rotation. PBS blank, untreated aggregates and DMSO controls are included with each experiment. After 2 hour incubation, samples are measured for ThT fluorescence using an LS55 (Perkin Elmer) fluorimeter in a cuvette.
Data are generated in FL Winlab software (Perkin Elmer) and analysed using GraphPad Prism v4.0 software. Data are calculated as the average of multiple reads.
The two values together provide a measure of the efficiency of disaggregation.

[3] = Assay 3(d) test compound cytotoxicity (MTS); format: cell-based; details: BL6Jx129sv, mouse, primary cortical neuronal cultures, cortical neurons; for viability at 4 days, 1 µM: read-out: Assay 3(d) Cytotoxicity (% viable at 1 uM); for viability at 4 days, 10 µM: read-out: Assay 3(d) Cytotoxicity (% viable at 10 uM)
Experimental: Primary Cortical Neuronal Cultures
Cortical cultures were prepared as previously described (White et al., 1998). Embryonic day 14 BL6Jx129sv mouse cortices were removed, dissected free of meninges and dissociated in 0.025% (wt/vol) trypsin. Dissociated cells were plated in 48 well culture plates at a density of 2×10^6 cells/mL in MEM with 25% (vol/vol) FCS and 5% (vol/vol) HS and incubated at 37° C., 2 hrs. Media was then replaced with Neurobasal media (Invitrogen Life Technologies) and B27 supplements (Invitrogen Life Technologies). Cultures were maintained at 37° C. in 5% CO2. Prior to experimentation, the culture medium was replaced with Neurobasal media and B27 minus antioxidants (Invitrogen Life Technologies).
(a) MTS Assay for Cell Viability
Cell viability is determined using the MTS assay. Culture medium is replaced with fresh neurobasal medium plus B27 supplements minus antioxidants. 1/10 volume MTS solution (Cell Titre 96 Aqueous One, Promega Corporation) and incubated at 37° C., 2 hrs. 200 microlitre aliquots are measured with a spectrophotometer at 560 nm.
(d) Assay for Test Compound Cytoxicity
Neuronal cortical cells were cultured for five days as per Assay 2 in NB media and B27 supplement.
On day six the test compounds were added to the neuronal cell cultures in NB media and B27 supplement minus antioxidants.
Test compounds were dissolved in 100% DMSO to a concentration of 2.5 mM (10 mM if excess compound was weighed out per vial—then diluted to 2.5 mM). 2.5 mM stock solution was serially diluted 1 in 10 to give working solutions of 250 uM, 25 uM, 2.5 uM. Test compounds were not added directly to cells, instead they were added to a 48 well ‘Drug Plate’ as comprised below:
Preparation of “Drug Plate”:
• Well 1: 576 ul NB+B27 (no antioxidant)*+24 ul 2.5 uM test compound • Well 2: 576 ul NB+B27 (no antioxidant)+24 ul 25 uM test compound • Well 3: 576 ul NB+B27 (no antioxidant)+24 ul 250 uM test compound • Well 4: 576 ul NB+B27 (no antioxidant)+24 ul 2.5 uM test compound • Well 5: 576 ul NB+B27 (no antioxidant)+24 ul 25 uM test compound • Well 6: 576 ul NB+B27 (no antioxidant)+24 ul 250 uM test compound • Well 7: 576 ul NB+B27 (no antioxidant)+24 ul test compound diluent** • Well 8: 600 ul NB+B27 (no antioxidant)
The Drug Plate was incubated at 37° C. for 15 mins. 200 ul of each well was added in triplicate to the corresponding cell plate. The cell plate was incubated at 37° C., for 4 days, (2 compounds are tested on each plate of cells).
* NB media and B27 (no antioxidants),
** PBT diluent 10% DMSO in NB+B27 (no antioxidants)
On completion of the assay, 1/10 volume MTS was added per well of plate (ie 25 ul/250 ul). The plates were incubated at 37° C. for 2 hrs, and then absorbance was read at 560 nm.

[4] = test system: soluble and insoluble Aβ in the brain; experiment: Assay 11 effect on Aβ deposits in transgenic animals (soluble and insoluble Aβ, Western blot); format: in vivo, APP2576 transgenic mouse; details: APP2576 mice
[5] = Assay 16 mouse plasma levels of test compounds; format: in vivo; details: for Conc. in mouse plasma: listed as PB 1076, 30 mg/kg
Experimental: Assay 16. Determination of Mouse Plasma Levels of Test Compounds PB 1075
(§1) Oral administration of PB 1075 at 30 mg/kg, as a suspension in Na-Carboxymethyl Cellulose (CMC) was administered by oral gavage to four mice. Two mice were sacrificed 30 minutes after administration and two mice were sacrificed 60 minutes after administration. Blood was obtained by cardiac puncture and plasma separated by centrifugation.
The concentration of PB 1075 was determined by LC/MS using the triple quadrupole instrument. The mobile phase consisted of an acetonitrile (ACN)/water gradient (containing 0.05% Formic acid) and the column was a Phenomenex Lunea 5 um C8 (50×2 mm) column.
The supplied acute toxicity mouse plasma samples were directly injected following a protein precipitation with ACN. The analytical method in plasma was linear in the range of 10 to 10,000 ng/ml (R^2=0.994). Recovery of PB 1075 from plasma was ˜100%.
as §1, with “1076” for “1075”
The concentration of PB 1076 was determined by LC/MS using the triple quadrupole instrument. The mobile phase consisted of an acetonitrile (ACN)/water gradient (containing 0.05% Formic acid) and the column was a Phenomenex Luna 5 μM C8 (50×2 mm) column.
The mouse plasma samples were directly injected following a protein precipitation with ACN. The analytical method in plasma was linear in the range of 500 to 10,000 ng/ml (R^2=0.999). Recovery of PB 1076 from plasma was ˜85%.
as §1, with “1077” for “1075”
The concentration of PB 1077 was determined by LC/MS using the triple quadrupole instrument. The mobile phase consisted of an acetonitrile (ACN)/water gradient (containing 0.05% Formic acid) and the column was a Phenomenex Luna 5 μM C8 (50×2 mm) column.
The mouse plasma samples were directly injected following a protein precipitation with ACN. The analytical method in plasma was linear in the range of 5 to 5,000 ng/ml (R^2=0.999). Recovery of PB 1077 from plasma was ˜92%.

[6] = test system: Aβ plaques; experiment: Assay 14 transgenic mouse brain immunohistochemistry (plaque score); format: in vivo; details: APP2576 mice
Source text: Assay 14. Transgenic Mouse Brain Immunohistochemistry
The APP2576 transgenic mouse (Hsiao et al., 1996) as referred to in Assay 11 is utilized in this assay. The contralateral formalin-fixed mouse brain tissue is coronally cut. Sections (10 μm) are taken from the corresponding sites and treated with 80% formic acid for antigen retrieval. The primary antibody used is monoclonal antibody 1E8, which recognizes epitopes between residues 18 and 22 of Aβ (SmithKline Beecham, UK). Immunoreactivity is developed with secondary antibody linked to horseradish peroxidase (using a 3,39-diaminobenzidinechromagen) (Dako) and alkaline phosphatase (using 5-bromo-4-chloro 3-indoxyl phosphate and nitroblue tetrazolium chloride chromagen) (Dako). Plaque abundance per section is assessed by two operators blinded to treatment according to the following scale:
1=plaques present but very sparse
2=several plaques present
3=numerous plaques visible in restricted areas
4=plaques abundant and not restricted to any particular area.
Intermediate values eg 2.5 are assigned where applicable. Students ‘t’ test is used for comparisons between groups.

T1 sequence (P05067 672-713 limits assumed): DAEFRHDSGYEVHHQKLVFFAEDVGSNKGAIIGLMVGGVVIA
T2 sequence (P05067 672-713 limits assumed): as above

| SMILES | IC50 [1] | Assay 17 percentage disaggregation at 5 uM [2] | EC50 [2] | viability at 4 days, 1 µM [3] | viability at 4 days, 10 µM [3] | disaggregation (rating in words) [2] | Tg mice Insoluble Fraction: % change compared with vehicle alone control mice ([4]; insoluble Aβ) | Tg mice Soluble Fraction: % change compared with vehicle alone control mice ([4]; soluble Aβ) | Conc. in mouse plasma ([5]; 30 min after oral dosing at 30 mg/kg, single mouse) | Conc. in mouse plasma ([5]; 60 min after oral dosing at 30 mg/kg, single mouse) | Assay 16 Mice plasma concentration ([5]; highest level found in mice (Up to), oral dosing 30 mg/kg described for PB 1075-1077) | concentration at 30 min ([5]; mouse, plasma, po, 30 mg/kg, 30 min after oral dosing at 30 mg/kg, single mouse, read-out: Conc. in mouse plasma) | Plaques score: average count score per treatment group relative to the vehicle (sham) treated group [6] |
| --- | --- | --- | --- | --- | --- | --- | --- | --- | --- | --- | --- | --- | --- |
| Br.O=c1c2c(Cl)cc(Cl)c(O)c2ncn1Cc1cccc(Cn2cnc3c(O)c(Cl)cc(Cl)c3c2=O)n1 [Compound 1101] | < 4.1 µM | 45 5/% | 11.7 µM | 89% | 17% | – | – | – | – | – | – | – | – |
| Br.O=c1c2c(Cl)cc(Cl)c(O)c2ncn1Nc1ccc(F)cc1F [Compound 1100] | 0.42 µM | 42% | 17 µM | 100% | 92% | – | – | – | – | – | – | – | – |
| O=c1c2c(Cl)ccc(O)c2ncn1CC1CC1 [Compound 1132] | – | 16 5/% | – | – | – | – | – | – | – | – | – | – | – |
| CCN(CC)Cc1nc2c(O)c(Cl)cc(Cl)c2c(=O)[nH]1 [Compound 1128] | 0.34 µM | 41 5/% | 13.2 µM | – | – | very good (A test compound able to achieve an IC50 at less than 20 μM and scoring greater than 40% disaggregation at 5 μM is considered ‘very good’) | – | – | – | – | – | – | – |
| Br.O=c1c2c(Cl)cc(Cl)c(O)c2ncn1CC1CC1 [Compound 1076] | 0.45 µM | – | – | – | – | – | −21% (insol) | −24% (sol) | 1593.61 ng/mL | 1167.52 ng/mL and 2697.62 ng/mL | Up to 2698 ng/mL | 2330 ng/mL | −29% (plaque) |
